Laboratory results taken from ChEMBL document CHEMBL1201862, “PubChem BioAssay data set” (2004).
Active and inactive are the calls of the source.

Columns and labels:
Trypsin = Trypsin (Sus scrofa, UniProt P00761); assay: porcine trypsin inhibitors, dose response, selectivity assay for Rce1 protease inhibitor project, biochemical, quenched peptide fluorescence, cherry-pick (AID 488789)
MDA-MB-435 = assay: cells; assay type: functional, cell-based; settings: Homo sapiens
cells = assay type: functional, cell-based; settings: PPC-1
[1] = molecular target: NACHT, LRR and PYD domains-containing protein 3 (Homo sapiens, UniProt Q96P20); assay: NALP3 inhibitors in yeast, dose response, luminescent (AID 488799); assay type: functional
SUMO-activating enzyme [2] = molecular target: T1, SUMO-activating enzyme (Homo sapiens, UniProt Q9UBT2); assay: inhibitors of in vitro SUMOylation cascade, primary screen, biochemical, HTRF, uHTS (AID 2006); assay type: protein-complex assay
[3] = growth suppression of PTEN-null colon cells, dose response, cell-based, HCT116 PTEN knockout (AID 1047); assay type: functional;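 further: HCT116 colon tumor cells with PTEN knocked out; cells exposed to compound for 60 hours before readout; potency for loss of cell viability measured by luminescence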
SUMO-activating enzyme [4] = molecular target: T1, SUMO-activating enzyme; assay: SUMOylation inhibitor hit validation, confirmation, SUMOylation inhibitor project, biochemical, AlphaScreen (AID 2018); assay type: functional
[5] = growth suppression of beta-catenin-knockout colon cells, dose response, cell-based, HCT116, human colon tumor (AID 1045); assay type: functional;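 further: HCT116 colon tumor cells with beta catenin knocked out; cells exposed to compound for 60 hours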
[6] = molecular target: Intestinal-type alkaline phosphatase (Homo sapiens, UniProt P09923); assay: Dose Response confirmation of uHTS hits from a small molecule inhibitors of human intestinal alkaline phosphatase via a luminescent assay. [Related pubchem assays (depositor defined):AID2544, AID2574]; assay type: functional
Protein Rev = Protein Rev (Human immunodeficiency virus type 1 group M subtype B (isolate HXB2)(HIV-1), UniProt P04618); assay: inhibitors of Rev binding to RRE RNA, dose response, biochemical, fluorescence polarization, HIV-1 (AID 434976); set-up: species or system Human immunodeficiency virus 1
[7] = molecular target: T2, Corticotropin-releasing factor receptor 2/Corticotropin-releasing factor-binding protein (Homo sapiens, UniProt P24387+Q13324); assay: activators of CRF receptor 2 with binding protein – uHTS hits, confirmation (AID 602473); assay type: functional; settings: read-out: EC50_Mean
T2 sequence (Q13324 whole entry): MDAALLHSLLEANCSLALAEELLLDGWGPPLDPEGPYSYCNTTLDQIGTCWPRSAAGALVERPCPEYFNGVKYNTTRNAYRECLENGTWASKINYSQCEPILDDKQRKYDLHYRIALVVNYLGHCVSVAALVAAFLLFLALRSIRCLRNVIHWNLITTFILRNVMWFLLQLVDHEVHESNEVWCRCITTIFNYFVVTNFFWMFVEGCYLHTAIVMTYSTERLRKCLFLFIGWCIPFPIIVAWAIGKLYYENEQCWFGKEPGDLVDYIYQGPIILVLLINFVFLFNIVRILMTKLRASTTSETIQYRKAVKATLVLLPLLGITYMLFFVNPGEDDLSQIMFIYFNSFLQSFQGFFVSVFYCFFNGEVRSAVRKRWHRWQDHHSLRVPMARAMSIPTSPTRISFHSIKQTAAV
T2 sequence (P24387 whole entry): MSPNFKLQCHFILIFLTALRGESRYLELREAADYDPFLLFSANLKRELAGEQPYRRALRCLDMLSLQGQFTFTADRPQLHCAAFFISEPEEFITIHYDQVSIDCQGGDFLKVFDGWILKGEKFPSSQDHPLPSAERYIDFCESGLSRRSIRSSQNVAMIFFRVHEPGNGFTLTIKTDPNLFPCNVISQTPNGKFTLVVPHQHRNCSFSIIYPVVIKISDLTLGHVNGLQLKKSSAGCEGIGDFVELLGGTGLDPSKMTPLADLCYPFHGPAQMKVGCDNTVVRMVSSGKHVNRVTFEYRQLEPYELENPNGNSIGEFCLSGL

[8] = molecular target: Female germline-specific tumor suppressor gld-1 (Caenorhabditis elegans, UniProt Q17339); assay: inhibitors of GLD-1 binding to TGE RNA, dose response, biochemical, fluorescence polarization, C. elegans (AID 2802);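 further: fluorescence polarization of labeled TGE RNA bound by purified gld-1 protein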
Genome polyprotein = Genome polyprotein (dengue virus type 2, UniProt P29990); assay: Dengue-2 NS5 methyltransferase inhibitors, primary screen, biochemical, confirmation dose response (AID 588689); assay type: functional
[9] = cytotoxicity in HPDE-C7 cells, cell-based, fluorescence, HTS (AID 430); assay type: functional; settings: Homo sapiens
HT-1080 = assay: cytotoxicity in HT1080 fibrosarcoma cells, cell-based, fluorescence readout (AID 620); assay type: functional; settings: Homo sapiens
[10] = microbe, parasite or virus in culture; assay type: functional; settings: Mycobacterium tuberculosis
[11] = NIH-3T3 fibroblast cytotoxicity, dose response, cytotoxicity control, cell-based, fluorescence, Alamar Blue, secondary assay (AID 2327); assay type: functional;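 further: NIH-3T3 mouse fibroblasts cultured with fluconazole at 8 µg/mL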
Nonstructural protein 1 = Nonstructural protein 1 (Influenza A virus, UniProt Q194T2); assay type: functional, Influenza A virus (A/California/07/2009(H1N1))
[12] = C. albicans growth with fluconazole, confirmation, fluorescence, retest (AID 2467); assay type: functional, cell-based
[13] = cytotoxicity in KRAS-transformed pancreatic duct cells, primary screen, cell-based, fluorescence, HTS (AID 431); assay type: functional; settings: Homo sapiens;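 further: cell line used: HPDE-C7K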
Beta-galactosidase = Beta-galactosidase (Escherichia coli, UniProt Q8VNN2); assay: beta-galactosidase enzyme inhibitors and activators, dose response, artefact control for CCR6 antagonist project, biochemical, E. coli enzyme, set 3 (AID 504712); assay type: functional
[14] = molecular target: Luciferin 4-monooxygenase (Photinus pyralis, UniProt P08659); assay: Counter Screen for Luciferase-based Assay Positives. [Related pubchem assays: 620, 618, 411 ]
[15] = molecular target: T3, Ubiquitin-conjugating enzyme E2 N (Homo sapiens, UniProt P61088); assay type: functional;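 further: Dose-response confirmation in a TR-FRET assay detecting UBC13-driven polyubiquitin chain formation, inhibition measured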
T3 sequence (P61088 whole entry): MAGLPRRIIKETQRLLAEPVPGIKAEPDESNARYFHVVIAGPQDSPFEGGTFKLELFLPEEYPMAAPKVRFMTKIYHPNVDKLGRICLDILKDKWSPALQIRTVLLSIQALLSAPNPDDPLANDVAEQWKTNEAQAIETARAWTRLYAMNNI

[16] = molecular target: Voltage-dependent T-type calcium channel subunit alpha-1H (Homo sapiens, UniProt O95180); assay: Cav3.2 T-type channel inhibitors, cell-based, synthetic library set 1, calcium flux (AID 493022); assay type: functional
[17] = molecular target: Protein phosphatase methylesterase 1 (Homo sapiens, UniProt Q9Y570); assay: PME-1 inhibitor potency by in-gel ABPP, dose response, selectivity assay for PME-1 inhibitor project, cell lysate, mouse brain cytosol, FP-rhodamine, panel member PME-1 Assay Panel member description: Inhibition of endogenously expressed PME-1 (AID 2366)
[18] = molecular target: T4, Tyrosine-protein phosphatase non-receptor type 22 (Homo sapiens, UniProt Q9Y2R2); assay type: functional
T4 sequence (Q9Y2R2 whole entry): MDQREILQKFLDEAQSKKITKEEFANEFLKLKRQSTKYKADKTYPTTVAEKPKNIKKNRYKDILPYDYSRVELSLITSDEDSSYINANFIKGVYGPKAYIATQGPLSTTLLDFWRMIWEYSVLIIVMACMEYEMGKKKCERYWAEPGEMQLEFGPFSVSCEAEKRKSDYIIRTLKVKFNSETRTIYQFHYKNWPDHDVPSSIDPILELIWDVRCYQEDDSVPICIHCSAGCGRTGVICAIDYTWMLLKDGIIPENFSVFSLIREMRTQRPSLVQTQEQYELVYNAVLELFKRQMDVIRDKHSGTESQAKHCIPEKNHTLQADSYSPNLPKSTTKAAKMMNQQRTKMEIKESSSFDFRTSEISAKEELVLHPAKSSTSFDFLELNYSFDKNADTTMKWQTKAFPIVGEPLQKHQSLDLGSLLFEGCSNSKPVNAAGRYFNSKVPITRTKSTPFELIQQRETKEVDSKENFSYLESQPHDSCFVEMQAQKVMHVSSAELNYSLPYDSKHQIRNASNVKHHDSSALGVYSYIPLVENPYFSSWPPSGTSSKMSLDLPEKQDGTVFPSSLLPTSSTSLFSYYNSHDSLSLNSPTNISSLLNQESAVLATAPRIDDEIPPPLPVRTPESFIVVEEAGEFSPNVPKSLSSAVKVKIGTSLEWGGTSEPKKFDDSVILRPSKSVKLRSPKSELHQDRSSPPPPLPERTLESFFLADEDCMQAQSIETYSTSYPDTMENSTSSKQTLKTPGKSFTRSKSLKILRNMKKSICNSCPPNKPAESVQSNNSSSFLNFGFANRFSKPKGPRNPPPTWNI

[19] = molecular target: Envelope glycoprotein gp160 (Human immunodeficiency virus 1, UniProt Q6QLK5); assay: inhibitors of HIV fusion peptide binding, primary screen, biochemical, uHTS, fluorescence dequenching (AID 1986)
[20] = molecular target: T5, Voltage-gated N-type calcium channel alpha-1B subunit/Amyloid beta A4 precursor protein-binding family A member 1 (Homo sapiens, UniProt Q00975+Q02410); assay type: protein assay
[21] = molecular target: T5, Voltage-gated N-type calcium channel alpha-1B subunit/Amyloid beta A4 precursor protein-binding family A member 1; assay type: protein assay; remark: listed apart in the source
[22] = molecular target: T6, Tyrosine-protein phosphatase non-receptor type 7 (Homo sapiens, UniProt P35236); assay type: functional
T6 sequence (P35236 whole entry): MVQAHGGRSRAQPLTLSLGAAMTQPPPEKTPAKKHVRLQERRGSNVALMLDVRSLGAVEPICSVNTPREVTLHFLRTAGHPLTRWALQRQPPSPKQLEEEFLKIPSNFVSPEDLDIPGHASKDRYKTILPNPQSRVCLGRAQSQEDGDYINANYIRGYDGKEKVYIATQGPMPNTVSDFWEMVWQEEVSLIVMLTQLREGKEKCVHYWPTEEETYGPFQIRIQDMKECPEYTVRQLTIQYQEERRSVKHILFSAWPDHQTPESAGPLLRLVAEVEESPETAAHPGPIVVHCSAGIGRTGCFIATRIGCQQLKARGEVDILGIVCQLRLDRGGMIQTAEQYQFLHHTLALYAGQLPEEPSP

[23] = molecular target: Eukaryotic translation initiation factor 4E (Mus musculus, UniProt P63073); assay: eIF4E–eIF4G protein interaction inhibitors, dose response, biochemical, TR-FRET (AID 855); assay type: functional;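 further: potency for disrupting eIF4E binding to eIF4GI seen as loss of FRET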
[24] = molecular target: T4, Tyrosine-protein phosphatase non-receptor type 22; assay: inhibitors of LYP phosphatase, biochemical, fluorescence intensity, uHTS (AID 1779)
[25] = molecular target: T4, Tyrosine-protein phosphatase non-receptor type 22; assay type: functional; remark: listed apart in the source
[26] = molecular target: DNA dC->dU-editing enzyme APOBEC-3A (Homo sapiens, UniProt P31941); assay: APOBEC3A DNA deaminase inhibitors, dose response, biochemical (AID 504722); assay type: functional
Large T antigen = Large T antigen (Simian virus 40, UniProt P03070); assay type: functional, Betapolyomavirus macacae;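 further: Confirmatory-stage PubChem screen for compounds that inhibit SV40 T antigen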
[27] = molecular target: FAD-linked sulfhydryl oxidase ALR (Homo sapiens, UniProt P55789); assay: inhibitors of human ALR sulfhydryl oxidase, dose response, biochemical, H2O2 detection, luminescence, cherry-pick (AID 493248)
[28] = molecular target: DNA dC->dU-editing enzyme APOBEC-3G (Homo sapiens, UniProt Q9HC16); assay: Dose Response confirmation of small molecule APOBEC3G DNA Deaminase Inhibitors via a fluorescence-based single-stranded DNA deaminase assay. [Related pubchem assays (depositor defined):AID493012, AID493028]; assay type: functional
Chain of DNA dC->dU-editing enzyme APOBEC-3G (Q9HC16 whole entry): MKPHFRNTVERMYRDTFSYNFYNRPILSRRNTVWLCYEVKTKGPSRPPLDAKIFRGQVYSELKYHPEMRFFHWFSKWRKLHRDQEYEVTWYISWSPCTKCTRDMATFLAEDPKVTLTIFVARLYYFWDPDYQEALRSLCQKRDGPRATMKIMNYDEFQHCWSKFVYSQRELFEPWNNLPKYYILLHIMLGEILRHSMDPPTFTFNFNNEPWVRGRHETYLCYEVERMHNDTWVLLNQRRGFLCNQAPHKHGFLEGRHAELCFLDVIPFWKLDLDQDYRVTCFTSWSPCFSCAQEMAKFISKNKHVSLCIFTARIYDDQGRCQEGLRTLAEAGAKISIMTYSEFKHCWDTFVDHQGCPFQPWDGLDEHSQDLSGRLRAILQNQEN

T1 sequence (Q9UBE0 whole entry): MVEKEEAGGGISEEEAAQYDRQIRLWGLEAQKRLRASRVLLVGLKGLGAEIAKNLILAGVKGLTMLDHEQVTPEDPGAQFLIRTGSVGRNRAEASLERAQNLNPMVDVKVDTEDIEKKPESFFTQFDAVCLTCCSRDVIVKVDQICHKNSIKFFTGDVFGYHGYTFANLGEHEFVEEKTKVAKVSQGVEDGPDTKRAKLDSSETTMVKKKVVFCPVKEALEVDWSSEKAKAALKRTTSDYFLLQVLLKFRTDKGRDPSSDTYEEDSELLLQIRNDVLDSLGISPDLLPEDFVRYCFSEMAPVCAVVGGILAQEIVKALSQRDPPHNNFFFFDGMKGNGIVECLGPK
T1 sequence (Q9UBT2 whole entry): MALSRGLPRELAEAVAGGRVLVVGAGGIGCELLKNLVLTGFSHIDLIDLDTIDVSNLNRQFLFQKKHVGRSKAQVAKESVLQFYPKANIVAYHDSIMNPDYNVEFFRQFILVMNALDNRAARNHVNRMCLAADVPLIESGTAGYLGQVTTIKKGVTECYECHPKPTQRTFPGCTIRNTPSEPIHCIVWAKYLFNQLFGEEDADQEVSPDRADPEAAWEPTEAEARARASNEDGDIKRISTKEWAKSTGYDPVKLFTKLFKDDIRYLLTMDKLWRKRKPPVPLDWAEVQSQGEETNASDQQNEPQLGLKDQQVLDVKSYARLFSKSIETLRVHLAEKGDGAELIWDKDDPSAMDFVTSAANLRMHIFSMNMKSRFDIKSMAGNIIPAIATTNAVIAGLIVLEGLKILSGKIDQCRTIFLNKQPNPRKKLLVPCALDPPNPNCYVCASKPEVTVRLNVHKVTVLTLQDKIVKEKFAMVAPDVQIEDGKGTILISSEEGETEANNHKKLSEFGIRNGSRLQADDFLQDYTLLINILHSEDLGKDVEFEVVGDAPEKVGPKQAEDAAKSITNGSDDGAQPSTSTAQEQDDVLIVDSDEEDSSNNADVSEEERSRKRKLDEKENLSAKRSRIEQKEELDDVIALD
T5 sequence (Q00975 whole entry): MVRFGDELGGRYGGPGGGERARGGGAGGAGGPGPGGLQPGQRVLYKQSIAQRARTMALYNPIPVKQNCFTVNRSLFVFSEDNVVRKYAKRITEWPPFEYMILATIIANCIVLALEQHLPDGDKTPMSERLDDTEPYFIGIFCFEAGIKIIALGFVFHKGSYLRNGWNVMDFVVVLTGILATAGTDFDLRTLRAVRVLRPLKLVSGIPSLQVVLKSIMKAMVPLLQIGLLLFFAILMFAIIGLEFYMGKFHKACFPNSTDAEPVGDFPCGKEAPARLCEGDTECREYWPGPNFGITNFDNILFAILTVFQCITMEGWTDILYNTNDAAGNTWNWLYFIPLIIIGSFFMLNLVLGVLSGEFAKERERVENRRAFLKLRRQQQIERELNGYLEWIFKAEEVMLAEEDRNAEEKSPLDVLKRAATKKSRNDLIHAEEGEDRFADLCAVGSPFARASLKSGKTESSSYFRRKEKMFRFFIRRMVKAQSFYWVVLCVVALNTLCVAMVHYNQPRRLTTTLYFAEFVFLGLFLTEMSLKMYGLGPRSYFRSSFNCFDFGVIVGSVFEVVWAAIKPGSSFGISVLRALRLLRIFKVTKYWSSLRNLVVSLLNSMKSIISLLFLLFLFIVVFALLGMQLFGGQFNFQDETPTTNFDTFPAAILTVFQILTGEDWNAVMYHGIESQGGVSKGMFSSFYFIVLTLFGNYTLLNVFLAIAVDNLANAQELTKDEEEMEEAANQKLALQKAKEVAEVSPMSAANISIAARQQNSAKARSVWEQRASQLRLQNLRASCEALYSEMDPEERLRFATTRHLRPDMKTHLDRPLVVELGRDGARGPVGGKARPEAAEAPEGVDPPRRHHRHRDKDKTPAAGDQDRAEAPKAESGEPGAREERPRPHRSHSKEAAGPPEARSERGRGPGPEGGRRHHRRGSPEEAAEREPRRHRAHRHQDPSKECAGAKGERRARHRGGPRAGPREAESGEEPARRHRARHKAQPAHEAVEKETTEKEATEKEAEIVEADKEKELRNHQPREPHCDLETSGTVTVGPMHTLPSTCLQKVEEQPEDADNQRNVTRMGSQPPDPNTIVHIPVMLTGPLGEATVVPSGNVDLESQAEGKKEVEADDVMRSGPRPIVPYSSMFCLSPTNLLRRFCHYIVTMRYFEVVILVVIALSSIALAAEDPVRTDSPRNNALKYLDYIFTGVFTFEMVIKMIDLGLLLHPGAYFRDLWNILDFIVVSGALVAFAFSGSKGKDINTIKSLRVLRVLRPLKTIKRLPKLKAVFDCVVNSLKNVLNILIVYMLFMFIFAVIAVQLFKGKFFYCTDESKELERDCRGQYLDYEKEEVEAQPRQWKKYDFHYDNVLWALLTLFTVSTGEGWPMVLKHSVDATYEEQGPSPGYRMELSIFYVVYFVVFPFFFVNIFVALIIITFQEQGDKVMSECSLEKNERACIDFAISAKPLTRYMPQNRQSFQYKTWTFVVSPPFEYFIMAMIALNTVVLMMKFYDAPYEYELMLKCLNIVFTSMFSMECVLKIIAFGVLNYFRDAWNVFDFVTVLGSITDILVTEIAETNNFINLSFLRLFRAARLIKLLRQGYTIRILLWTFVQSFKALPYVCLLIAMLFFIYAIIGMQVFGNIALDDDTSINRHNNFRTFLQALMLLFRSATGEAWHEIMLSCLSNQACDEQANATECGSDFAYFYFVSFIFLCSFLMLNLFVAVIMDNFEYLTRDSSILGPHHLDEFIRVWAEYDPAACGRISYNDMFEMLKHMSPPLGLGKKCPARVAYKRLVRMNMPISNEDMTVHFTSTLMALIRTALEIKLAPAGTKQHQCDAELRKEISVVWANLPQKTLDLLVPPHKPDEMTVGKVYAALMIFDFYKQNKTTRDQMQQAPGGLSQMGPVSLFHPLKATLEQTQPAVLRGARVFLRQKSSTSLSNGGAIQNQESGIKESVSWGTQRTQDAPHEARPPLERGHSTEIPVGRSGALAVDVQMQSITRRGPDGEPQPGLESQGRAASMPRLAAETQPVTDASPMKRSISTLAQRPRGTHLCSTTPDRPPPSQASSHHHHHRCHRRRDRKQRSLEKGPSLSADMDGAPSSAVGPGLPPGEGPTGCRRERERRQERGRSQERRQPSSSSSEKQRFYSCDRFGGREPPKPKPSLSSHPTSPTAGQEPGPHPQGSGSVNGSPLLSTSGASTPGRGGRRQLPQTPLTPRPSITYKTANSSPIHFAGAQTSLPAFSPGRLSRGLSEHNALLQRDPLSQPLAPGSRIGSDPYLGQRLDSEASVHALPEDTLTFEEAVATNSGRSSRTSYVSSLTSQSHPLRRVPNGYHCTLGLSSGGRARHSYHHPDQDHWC
T5 sequence (Q02410 whole entry): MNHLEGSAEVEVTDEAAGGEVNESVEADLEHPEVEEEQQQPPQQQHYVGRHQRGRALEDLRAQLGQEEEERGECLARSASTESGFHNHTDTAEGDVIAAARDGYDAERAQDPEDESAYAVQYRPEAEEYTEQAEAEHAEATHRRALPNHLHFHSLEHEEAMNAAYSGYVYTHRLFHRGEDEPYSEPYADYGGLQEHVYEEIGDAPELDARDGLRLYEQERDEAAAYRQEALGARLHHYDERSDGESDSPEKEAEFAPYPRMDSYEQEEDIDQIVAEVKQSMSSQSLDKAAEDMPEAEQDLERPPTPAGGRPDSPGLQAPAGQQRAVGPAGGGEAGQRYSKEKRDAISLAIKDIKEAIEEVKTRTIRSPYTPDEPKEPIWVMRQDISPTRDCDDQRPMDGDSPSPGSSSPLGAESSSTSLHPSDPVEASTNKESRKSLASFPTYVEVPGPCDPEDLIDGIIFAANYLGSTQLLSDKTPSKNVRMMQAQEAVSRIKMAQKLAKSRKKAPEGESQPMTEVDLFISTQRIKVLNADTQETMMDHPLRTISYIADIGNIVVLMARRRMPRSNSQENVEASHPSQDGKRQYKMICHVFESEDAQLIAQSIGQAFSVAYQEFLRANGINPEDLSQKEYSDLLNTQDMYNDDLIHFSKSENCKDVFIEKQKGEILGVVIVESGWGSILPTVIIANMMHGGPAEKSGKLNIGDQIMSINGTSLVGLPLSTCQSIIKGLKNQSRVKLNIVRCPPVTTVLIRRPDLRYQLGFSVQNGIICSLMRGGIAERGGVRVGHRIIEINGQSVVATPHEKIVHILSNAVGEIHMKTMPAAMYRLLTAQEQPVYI
Chain of Intestinal-type alkaline phosphatase (P09923 whole entry): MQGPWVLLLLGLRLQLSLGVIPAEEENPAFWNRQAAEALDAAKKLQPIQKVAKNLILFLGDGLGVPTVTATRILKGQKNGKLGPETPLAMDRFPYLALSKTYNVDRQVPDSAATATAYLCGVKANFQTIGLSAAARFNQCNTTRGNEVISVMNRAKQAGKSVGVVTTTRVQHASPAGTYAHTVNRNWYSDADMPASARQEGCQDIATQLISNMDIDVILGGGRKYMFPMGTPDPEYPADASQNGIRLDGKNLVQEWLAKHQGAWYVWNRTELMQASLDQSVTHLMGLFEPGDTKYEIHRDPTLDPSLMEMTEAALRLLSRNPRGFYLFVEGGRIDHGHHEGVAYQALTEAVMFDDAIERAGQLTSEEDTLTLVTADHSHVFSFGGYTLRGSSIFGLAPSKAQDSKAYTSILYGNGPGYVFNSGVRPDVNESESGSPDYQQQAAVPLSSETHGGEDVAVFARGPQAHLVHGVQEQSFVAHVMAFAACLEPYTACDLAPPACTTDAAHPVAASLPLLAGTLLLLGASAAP

## CSC[C@H](NC(=O)COc1cc2c(c3oc(=O)cc(C)c13)CCC(C)(C)O2)C(=O)O
Trypsin
  AC50: 12 µM (active)

## CCSc1cc(N2CCCC2)nc(-c2ccc(Cl)cc2)n1
MDA-MB-435
  IC50: > 10 µM (inactive)
cells
  IC50: > 10 µM (inactive)

## O=C(Nc1scc(-c2ccccc2)c1C(=O)O)c1ccc(F)cc1
[1]
  IC50: 10.3 µM (active)

## O=C(/C=C/c1ccco1)NC(=S)Nc1cc(-c2nc3ccccc3s2)ccc1Cl
SUMO-activating enzyme [2]
  IC50: 26 µM (active)
[3]
  EC50: 7.86 µM (active)
SUMO-activating enzyme [4]
  IC50: 7.42 µM (active)
[5]
  EC50: 7.24 µM (active)

## COc1ccc2nc(N3CCC(O)CC3)c(C#N)cc2c1
[6]
  IC50: > 100 µM (inactive)
Protein Rev
  IC50: 67.6 µM (not active)
[7]
  EC50: > 53 µM (inactive)
[8]
  IC50: 24.9 µM (inactive)
Genome polyprotein
  IC50: 59.2 µM (active)

## CN1CCN(CC(=O)N2CCn3c4c(c5cc(C6CCCCC6)ccc53)CCCC42)CC1 (centres undefined)
[9]
  EC50: 3.48 µM (active)
HT-1080
  EC50: 14.7 µM (active)
[10]
  CC50: 6.93 µM (active)
[3]
  EC50: 3.99 µM (active)
[11]
  EC50: > 150 µM (inconclusive)
Nonstructural protein 1
  IC50: 18.9 µM (active)
[5]
  EC50: 3.56 µM (active)
[12]
  EC50: > 38 µM (not active)
[13]
  EC50: 4.39 µM (active)
Beta-galactosidase
  IC50: > 66.6 µM (inactive)
[14]
  EC50: 0.84 µM (active)
[15]
  IC50: > 20 µM (inactive)

## O=C(COc1ccccc1Cl)Nc1nnc(-c2ccc3c(c2)OCO3)o1
[16]
  EC50: 3 µM (active)

## Cc1noc(C)c1S(=O)(=O)n1cccc1/C=C(\C#N)S(C)(=O)=O
[17]
  IC50: > 20 µM (inactive)

## CCOc1cc(/C=N/NC(=O)c2ccc(-c3csc(Nc4ccc(C)cc4)n3)cc2)ccc1OCC(=O)O
[18]
  IC50: 4.68 µM (active)
[19]
  IC50: 7.29 µM (active)
[20]
  IC50: 49.1 µM (active)
[21]
  IC50: 11.1 µM (active)
[22]
  IC50: 3.93 µM (active)
[23]
  IC50: 50 µM (inactive)
[24]
  IC50: 8.71 µM (active)
[25]
  IC50: 6.63 µM (active)

## COc1cccc(/C=N/n2c(S)nnc2-c2cc(C)[nH]n2)c1O
[26]
  IC50: > 100 µM (inactive)
Large T antigen
  IC50: 16 µM (active)
[27]
  AC50: 3.54 µM (active)
[28]
  IC50: 4.07 µM (active)
